From PubChem BioAssay (NCI)
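Tested at 5 concentrations; 48 h exposure; 96-well plates; endpoints linearly interpolated, else capped at highest concentration. The concentration for 50% growth inhibition is given as GI50. TGI is the concentration that stops growth completely.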

What was measured:
Assay in all cases: NCI anticancer screen, dose series, 48 h
[1] = system: SW-620 colon
[2] = system: OVCAR-3 ovarian
[3] = system: A498 renal
[4] = system: SNB-19 CNS
[5] = system: HOP-92 NSCLC
[6] = system: HCC-2998 colon
[7] = system: CAKI-1 renal
[8] = system: MDA-MB-231 breast
[9] = system: TK-10 renal
[10] = system: NCI/ADR-RES ovarian
[11] = system: SK-MEL-2 melanoma
[12] = system: RPMI-8226 leukemia
[13] = system: OVCAR-5 ovarian
[14] = system: EKVX NSCLC
[15] = system: COLO 205 colon
[16] = system: MDA-MB-435
[17] = system: BT-549 breast
[18] = system: SF-268 CNS
[19] = system: HCT-116 colon
[20] = system: MCF7 breast
[21] = system: M14 melanoma
[22] = system: NCI-H226 lung
[23] = system: OVCAR-4 ovarian
[24] = system: HCT-15 colon
[25] = system: 786-0 renal
[26] = system: DU-145 prostate
[27] = system: NCI-H23 lung
[28] = system: MALME-3M melanoma
[29] = system: K-562 leukemia
[30] = system: PC-3 prostate
[31] = system: HOP-62 NSCLC
[32] = system: KM12 colon
[33] = system: NCI-H460 lung
[34] = system: T-47D breast
[35] = system: OVCAR-8 ovarian
[36] = system: A549 NSCLC
[37] = system: LOX IMVI melanoma
[38] = system: ACHN renal
[39] = system: IGROV1 ovarian
[40] = system: SK-OV-3 ovarian
[41] = system: UACC-257 melanoma
[42] = system: U251 CNS
[43] = system: SK-MEL-5 melanoma
[44] = system: MOLT-4 leukemia
[45] = system: RXF 393 renal
[46] = system: HT29 colon
[47] = system: SF-295 CNS
[48] = system: NCI-H522 lung
[49] = system: SN12C renal
[50] = system: CCRF-CEM leukemia
[51] = system: HS 578T breast
[52] = system: UO-31 renal
[53] = system: UACC-62 melanoma
[54] = system: HL-60(TB) leukemia
[55] = system: SK-MEL-28 melanoma
[56] = system: SF-539 CNS

Compound: CS(=O)(=O)Nc1ccc(Nc2cc[nH]c3ccc4nccc4c23)cc1
- TGI [1]: 49.8 µM
- TGI [2]: 32.5 µM
- TGI [3]: 34.2 µM
- TGI [4]: 26.3 µM
- TGI [5]: 46.3 µM
- TGI [6]: 16.3 µM
- TGI [7]: 68.4 µM
- TGI [8]: 21.6 µM
- TGI [9]: 82.1 µM
- TGI [10]: > 100 µM
- TGI [11]: 23.9 µM
- TGI [12]: 44.6 µM
- TGI [13]: 61.1 µM
- TGI [14]: 58.7 µM
- TGI [15]: 44.2 µM
- TGI [16]: 29.5 µM
- TGI [17]: 40 µM
- TGI [18]: 18.9 µM
- TGI [19]: > 43.1 µM
- TGI [20]: 20.7 µM
- TGI [21]: 30.4 µM
- TGI [22]: 24.5 µM
- TGI [23]: 26.2 µM
- TGI [24]: > 100 µM
- TGI [25]: 38.4 µM
- TGI [26]: 22.2 µM
- TGI [27]: 38.5 µM
- TGI [28]: 18.4 µM
- TGI [29]: 32 µM
- TGI [30]: 30.3 µM
- TGI [31]: 37.3 µM
- TGI [32]: 28.1 µM
- TGI [33]: 31.8 µM
- TGI [34]: 22.6 µM
- TGI [35]: > 65.1 µM
- TGI [36]: 38.8 µM
- TGI [37]: 34.2 µM
- TGI [38]: 65.3 µM
- TGI [39]: 58.5 µM
- TGI [40]: > 100 µM
- TGI [41]: 31.5 µM
- TGI [42]: 22 µM
- TGI [43]: 24.7 µM
- TGI [44]: 7.78 µM
- TGI [45]: 30.2 µM
- TGI [46]: 48.4 µM
- TGI [47]: 62.2 µM
- TGI [48]: 24.3 µM
- TGI [49]: 32.3 µM
- TGI [50]: > 67.8 µM
- TGI [51]: > 60.8 µM
- TGI [52]: > 81.2 µM
- TGI [53]: 28.1 µM
- TGI [54]: 42 µM
- TGI [55]: 32.2 µM

Compound: C=C1C(=O)O[C@H]2[C@H]1CC/C(COC(=O)NCc1ccc(Cn3c(=O)sn(CCI)c3=O)cc1)=C\CC[C@@]1(C)O[C@@H]21
- GI50 [1]: 1.66 µM
- TGI [1]: 3.25 µM
- GI50 [2]: 1.64 µM
- TGI [2]: 3.05 µM
- GI50 [3]: 4.44 µM
- TGI [3]: 20 µM
- GI50 [4]: 6.88 µM
- TGI [4]: 19.9 µM
- GI50 [5]: 1.38 µM
- TGI [5]: 2.76 µM
- GI50 [56]: 1.72 µM
- TGI [56]: 3.18 µM
- GI50 [6]: 10.4 µM
- TGI [6]: 22.5 µM
- GI50 [7]: 3.79 µM
- TGI [7]: 14 µM
- GI50 [8]: 1.77 µM
- TGI [8]: 3.31 µM
- GI50 [9]: 1.91 µM
- TGI [9]: 3.68 µM
- GI50 [10]: 20.3 µM
- TGI [10]: 47.2 µM
- GI50 [11]: 11.7 µM
- TGI [11]: 26.2 µM
- GI50 [12]: 1.98 µM
- TGI [12]: 5.11 µM
- GI50 [13]: 3.27 µM
- TGI [13]: 10.1 µM
- GI50 [14]: 2.11 µM
- TGI [14]: 5.58 µM
- GI50 [15]: 1.86 µM
- TGI [15]: 3.55 µM
- GI50 [16]: 2.45 µM
- TGI [16]: 6.62 µM
- GI50 [17]: 2.4 µM
- TGI [17]: 6.08 µM
- GI50 [18]: 2.41 µM
- TGI [18]: 6.26 µM
- GI50 [19]: 1.76 µM
- TGI [19]: 3.27 µM
- GI50 [20]: 1.71 µM
- TGI [20]: 3.64 µM
- GI50 [21]: 1.82 µM
- TGI [21]: 3.59 µM
- GI50 [22]: 15.1 µM
- TGI [22]: 33.1 µM
- GI50 [23]: 2.02 µM
- TGI [23]: 4.19 µM
- GI50 [24]: 1.91 µM
- TGI [24]: 4.1 µM
- GI50 [25]: 1.82 µM
- TGI [25]: 3.36 µM
- GI50 [26]: 1.82 µM
- TGI [26]: 3.29 µM
- GI50 [27]: 3.46 µM
- TGI [27]: 13.6 µM
- GI50 [28]: 1.68 µM
- TGI [28]: 3.4 µM
- GI50 [29]: 0.655 µM
- TGI [29]: > 100 µM
- GI50 [30]: 1.75 µM
- TGI [30]: 3.33 µM
- GI50 [31]: 11.7 µM
- TGI [31]: 24.2 µM
- GI50 [32]: 8.15 µM
- TGI [32]: 23.1 µM
- GI50 [33]: 6.42 µM
- TGI [33]: 22.7 µM
- GI50 [34]: 1.32 µM
- TGI [34]: 3.06 µM
- GI50 [35]: 4.55 µM
- TGI [35]: 18.9 µM
- GI50 [36]: 16.6 µM
- TGI [36]: 32.4 µM
- GI50 [37]: 1.69 µM
- TGI [37]: 3.11 µM
- GI50 [38]: 1.89 µM
- TGI [38]: 3.37 µM
- GI50 [39]: 2.08 µM
- TGI [39]: 4.07 µM
- GI50 [40]: 15.2 µM
- TGI [40]: 28.5 µM
- GI50 [41]: 2.24 µM
- TGI [41]: 4.82 µM
- GI50 [42]: 4.67 µM
- TGI [42]: 16 µM
- GI50 [43]: 5.37 µM
- TGI [43]: 17.9 µM
- GI50 [44]: 1.35 µM
- TGI [44]: 5.35 µM
- GI50 [45]: 1.61 µM
- TGI [45]: 3.13 µM
- GI50 [46]: 2.1 µM
- TGI [46]: 4.05 µM
- GI50 [47]: 13.6 µM
- TGI [47]: 27.1 µM
- GI50 [48]: 1.72 µM
- TGI [48]: 3.36 µM
- GI50 [49]: 2.16 µM
- TGI [49]: 5.38 µM
- GI50 [51]: 7.29 µM
- TGI [51]: 42.4 µM
- GI50 [52]: 1.65 µM
- TGI [52]: 3.11 µM
- GI50 [53]: 1.98 µM
- TGI [53]: 4.08 µM
- GI50 [55]: 2.06 µM
- TGI [55]: 3.74 µM
